Data as given in the NIST ThermoML archive (doi:10.1016/j.fluid.2010.01.020).

Legend:
[1] = Crystal
[2] = Molar enthalpy of transition or fusion; conditions: Crystal; DSC
[3] = xn = mol fraction of the nth substance listed; conditions: 101 kPa, Liquid, Vibrating tube method

CCn1cc[n+](C)c1.Cc1ccc(S(=O)(=O)[O-])cc1 [1-ethyl-3-methylimidazolium 4-methylbenzenesulfonate]
[1]
Conditions	Normal melting temperature [°C]
DTA	49.2
Solid-Liquid Equilibrium	53.5

Conditions	Molar enthalpy of transition or fusion [kJ/mol]
[2]	20.5

CCn1cc[n+](C)c1.N#C[S-] [1-ethyl-3-methylimidazolium thiocyanate] + O
mass density [kg/m3], [3]
Conditions	298.15 K	308.15 K	318.15 K	328.15 K	338.15 K	348.15 K
x1 = 0.0248	1016	1010.56	1005.23	1000.09	994.12	987.53
x1 = 0.0635	1036.86	1031.47	1025.75	1019.71	1013.39	1006.75
x1 = 0.1377	1062.14	1056.21	1049.96	1043.71	1036.7	1030.27
x1 = 0.2145	1077.88	1071.45	1064.98	1058.44	1051.85	1045.17
x1 = 0.3381	1092.51	1086.08	1079.64	1073.2	1066.76	1060.28
x1 = 0.4198	1098.72	1092.33	1085.98	1079.65	1073.3	1066.97
x1 = 0.5599	1105.92	1099.59	1093.4	1087.19	1081	1074.85
x1 = 0.6524	1109.2	1102.99	1096.81	1090.66	1084.56	1078.47
x1 = 0.7369	1111.59	1105.42	1099.15	1093.24	1087.14	1081.08
x1 = 0.8256	1113.68	1107.51	1101.41	1095.36	1089.34	1083.37
x1 = 0.9263	1115.64	1109.54	1103.5	1097.51	1091.43	1085.62
x1 = 1	1116.84	1110.73	1104.67	1098.69	1092.73	1086.83

O [water] + CCn1cc[n+](C)c1.N#C[S-]
[3], x2 = 0
Conditions	mass density [kg/m3]
308.15 K	992.03
318.15 K	987.02
328.15 K	981.69
338.15 K	977.03
348.15 K	971.75
